Assay results from patent publication US6600028B1, “Tricyclic base analogues” (Amersham Pharmacia Biotech UK Limited, priority 1997, dated 2003).
Where two headings read alike, the source gives them in different places.

How the values were obtained:
[1] = system: ThermoSequenase DNA polymerase; assay: Cycle sequencing reactions with radiolabelled terminators; type: biochemical; details: for length of sequence obtained: dSTP 40 μM in place of dATP ("A" mix), dITP 37.5 μM or 8-oxo-dGTP 160 μM in place of dGTP
Method: The incorporation of dSTP and the pyrazolo compound (4.11) into DNA by ThermoSequenase™ DNA polymerase was examined in cycle sequencing reactions.
The following nucleotide mixes were made up:
a) Standard dNTP mix 7.5 μM dATP, dCTP, dGTP, dTTP
b) Standard dITP mix 7.5 μM dATP, dCTP, dTTP and 37.5 μM dITP
c) 8-oxo-dGTP mix 7.5 μM dATP, dCTP, dTTP and 160 μM 8-oxo-dGTP
d) dSTP “A” mix 7.5 μM dCTP, dGTP, dTTP and 40 μM dSTP
e) Compound (4.11) “A” mix 7.5 μM dCTP, dGTP, dTTP and 40 μM compound (4.11)
f) dSTP “G” mix 7.5 μM dATP, dCTP, dTTP and 80 μM dSTP
g) Compound (4.11) “G” mix 7.5 μM dATP, dCTP, dTTP and 80 μM compound (4.11)
The following reaction master mix was made up:
All reagents were from ThermoSequenase radiolabelled terminator cycle sequencing kit (US79750 Amersham life Science). [α^33P] ddNTP's were from Amersham Pharmacia Biotech (code AH9539).
All reactions were overlayed with mineral oil and then cycled as follows:
The reactions were then heated at 95° C. for 2 minutes before loading onto a 6% polyacrylamide 7M urea gel. The gel was run at 48 mA for 90 minutes. After fixing in 10% acetic acid/10% methanol the gel was dried and exposed to Kodak Biomax autoradiography film.

[2] = system: terminal deoxynucleotidyl transferase; assay: Oligonucleotide tailing reaction; type: biochemical; details: 64 μM dNTP or analogue triphosphate, 25 U enzyme, 90 minutes at 37° C.
Method: A 15 mer primer (sequence: 5′ TGC ATG TGC TGG AGA 3′) (SEQ ID NO. 6) and 8 to 32 base oligonucleotide markers were 5′ end labelled with [y^33P] ATP and T4 polynucleotide kinase. Reactions were boiled for 5 minutes after labelling to remove any PNK activity. Four picomoles of the labelled primer, 25 U terminal deoxynucleotidyl transferase and 64 μM dNTP or analogue triphosphate were incubated in 25 μl 100 mM cacodylate buffer pH7.2, 2 mM CoCl2 and 0.2 mM 2-mercaptoethanol for 90 minutes at 37° C. […] Autoradiography using Biomax film was carried out on the dry gel.

[3] = system: 3′ to 5′ exonuclease-free version of Klenow fragment of DNA polymerase I (EFK); details: for primer extension product, analogue triphosphate as only nucleotide: Template 1, 20 μM or 80 μM analogue triphosphate alone, 37° C., 3 minutes
Method: b) A second primer extension assay was used to compare the triphosphate of the pyrrolo compound (1.14) (dSTP) with the triphosphate of the pyrazolo compound (4.11) as substrates for the 3′ to 5′ exonuclease-free version of Klenow fragment of DNA polymerase I (EFK). The assay used a ^33P 5′ end labelled 15 mer primer hybridised to one of two different 24 mer templates.
One picomole ^33P labelled primer was hybridised to 2 picomoles of template in ×2 Klenow buffer. To this was added either 4 μM dNTPαS, 20 μM or 80 μM analogue triphosphate or a mixture of 4 μM dNTPαS and 20 or 80 μM analogue triphosphate. Two units EFK and 2 mU inorganic pyrophosphatase were used per reaction. Primer alone, primer plus template, primer plus template plus enzyme controls were also carried out. The reactions were incubated at 37° C. for 3 minutes. Reactions were then stopped by the addition of formamide EDTA stop solution. Reaction products were separated on a 19% polyacrylamide 7M urea gel and the product fragments sized by comparison with a ^33P labelled 8 to 32 base oligonucleotide ladder after exposure to Kodak Biomax autoradiography film.

[4] = biological target: 3′ to 5′ exonuclease-free version of Klenow fragment (Escherichia coli, UniProt P00582, D355A/E357A); details: 50 μM dSTP, 37° C., 15 minutes, opposite T or C in template, not opposite A or G
3′ to 5′ exonuclease-free version of Klenow fragment, sequence (P00582 324-928 D355A/E357A): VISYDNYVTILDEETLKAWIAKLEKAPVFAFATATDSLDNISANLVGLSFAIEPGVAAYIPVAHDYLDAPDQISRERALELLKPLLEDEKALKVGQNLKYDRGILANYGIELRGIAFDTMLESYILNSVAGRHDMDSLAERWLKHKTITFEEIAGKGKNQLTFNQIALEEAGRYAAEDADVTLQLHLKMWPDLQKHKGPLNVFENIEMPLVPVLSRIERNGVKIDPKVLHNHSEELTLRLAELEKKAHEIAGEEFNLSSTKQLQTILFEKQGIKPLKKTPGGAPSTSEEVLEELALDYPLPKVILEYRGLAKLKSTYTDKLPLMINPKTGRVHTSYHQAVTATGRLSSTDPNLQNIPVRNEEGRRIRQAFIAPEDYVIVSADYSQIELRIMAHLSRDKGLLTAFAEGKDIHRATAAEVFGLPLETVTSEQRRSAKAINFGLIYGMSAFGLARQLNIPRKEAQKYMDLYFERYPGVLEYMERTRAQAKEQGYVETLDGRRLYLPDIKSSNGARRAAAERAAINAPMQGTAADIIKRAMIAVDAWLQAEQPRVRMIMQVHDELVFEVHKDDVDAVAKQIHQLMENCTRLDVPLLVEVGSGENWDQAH
Method: (§1) a) The incorporation of dSTP into DNA by DNA polymerases was examined in primer extension assays. […] Each reaction contained 1 pmol of a 24-mer oligonucleotide: 5′ […] (SEQ ID NO. 1) annealed to 0.25 pmol of a complementary 20-mer oligonucleotide 5′ […] (SEQ ID NO. 2) which was labelled at the 5′ end with 32P, and 1 μl of 10×buffer (for Taq polymerase: 500 mM KCl, 100 mM Tris pH 9 at room temperature, 1% Triton-X 100, 15 mM MgCl2; for the other two enzymes: 50 mM MgCl2, 100 mM Tris pH 7.5 at room temperature, 75 mM DTT). Normal dNTPs, in various combinations, were added, as required, to 50 μM final concentration; dSTP was also used at 50 μM final concentration.
(§2) For each enzyme four reactions were performed:
(§3) iv) plus dSTP, TTP and dCTP.
(§4) A single unit of the appropriate polymerase was added to start each of the reactions; these were incubated for 15 minutes (at 72° C. under mineral oil for Taq, at 37° C. for Pol I derivatives) before being terminated by the addition of 5 μl of termination mix (95% formamide, 20 mM EDTA, 0.05% Bromophenol Blue, 0.05% Xylene Cyanol FF). The reactions were heated to 70° C. for ten minutes before electrophoresis on a 20% polyacrylamide/7M urea gel, which was then exposed to autoradiography film.

Taq polymerase = biological target: T1, Taq polymerase (Thermus aquaticus, UniProt P19821); assay: Primer extension assay, incorporation of dSTP into DNA by Taq polymerase; type: biochemical; details: 50 μM dSTP, 72° C., 15 minutes, opposite T or C in template, not opposite A or G
T1 construct: purchased Promega
T1 sequence (P19821 whole entry): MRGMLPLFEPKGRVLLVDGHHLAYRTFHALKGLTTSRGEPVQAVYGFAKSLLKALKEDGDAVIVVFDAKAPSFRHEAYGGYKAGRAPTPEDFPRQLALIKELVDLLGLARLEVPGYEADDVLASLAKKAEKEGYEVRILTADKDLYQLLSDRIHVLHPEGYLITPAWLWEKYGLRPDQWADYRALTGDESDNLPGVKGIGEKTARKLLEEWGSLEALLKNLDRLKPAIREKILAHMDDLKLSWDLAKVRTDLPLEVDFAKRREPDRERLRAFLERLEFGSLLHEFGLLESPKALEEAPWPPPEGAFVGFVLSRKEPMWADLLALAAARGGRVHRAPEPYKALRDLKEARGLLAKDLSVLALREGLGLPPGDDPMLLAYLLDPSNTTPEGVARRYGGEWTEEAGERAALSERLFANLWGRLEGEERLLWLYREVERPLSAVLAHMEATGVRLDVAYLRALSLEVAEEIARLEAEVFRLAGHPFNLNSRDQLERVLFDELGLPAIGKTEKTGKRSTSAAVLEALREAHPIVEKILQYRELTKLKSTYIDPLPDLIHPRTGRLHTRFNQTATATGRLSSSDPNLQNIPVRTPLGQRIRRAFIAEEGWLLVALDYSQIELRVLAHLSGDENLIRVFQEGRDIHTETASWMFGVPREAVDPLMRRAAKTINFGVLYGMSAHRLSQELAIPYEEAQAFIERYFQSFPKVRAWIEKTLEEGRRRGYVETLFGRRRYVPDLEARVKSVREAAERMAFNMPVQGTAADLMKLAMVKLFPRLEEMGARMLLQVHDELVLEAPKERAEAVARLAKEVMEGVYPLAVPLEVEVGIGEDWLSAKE
Method: as §1, §2, §3, §4

[5] = biological target: T2, Klenow fragment of E. coli DNA polymerase I (Escherichia coli, UniProt P00582); assay: Primer extension assay, incorporation of dSTP into DNA by Klenow fragment; type: biochemical; details: 50 μM dSTP, 37° C., 15 minutes, opposite T or C in template, not opposite A or G
T2 construct: the Klenow fragment of E. coli DNA polymerase I (Boehringer Mannheim); purchased Boehringer Mannheim
T2 sequence (P00582 324-928): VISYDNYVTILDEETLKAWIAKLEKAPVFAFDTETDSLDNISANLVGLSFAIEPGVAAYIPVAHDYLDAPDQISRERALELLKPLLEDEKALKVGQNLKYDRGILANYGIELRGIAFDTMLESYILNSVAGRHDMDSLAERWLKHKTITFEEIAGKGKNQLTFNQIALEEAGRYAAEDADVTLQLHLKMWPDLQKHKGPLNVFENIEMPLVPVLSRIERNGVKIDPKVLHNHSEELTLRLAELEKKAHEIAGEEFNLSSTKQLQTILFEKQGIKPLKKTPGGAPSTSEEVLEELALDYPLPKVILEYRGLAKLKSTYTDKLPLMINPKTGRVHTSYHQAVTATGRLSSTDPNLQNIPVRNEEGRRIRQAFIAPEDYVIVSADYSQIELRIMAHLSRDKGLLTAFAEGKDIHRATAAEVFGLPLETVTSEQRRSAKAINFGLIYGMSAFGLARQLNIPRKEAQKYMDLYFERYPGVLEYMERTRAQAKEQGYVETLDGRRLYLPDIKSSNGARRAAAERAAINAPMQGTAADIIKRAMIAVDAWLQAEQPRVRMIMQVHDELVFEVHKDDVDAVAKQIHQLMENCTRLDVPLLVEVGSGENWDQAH
Method: as §1, §2, §3, §4

Compound: Nc1nc2c([nH]c(=O)n2[C@H]2C[C@H](O)[C@@H](COP(=O)(O)OP(=O)(O)OP(=O)(O)O)O2)c(=O)[nH]1 [8-oxo dGTP, 8-oxo-dGTP]
- length of sequence obtained ([1]; M13 mp18 template, 10 cycles): 15-20 bases

Compound: Nc1ncnc2c1ncn2[C@H]1C[C@H](O)[C@@H](COP(=O)(O)OP(=O)(O)OP(=O)(O)O)O1 [dATP, reference compound]
- length of tail added to 15 mer primer [2]: greater than 100 bases

Compound: O=P(O)(O)OP(=O)(O)OP(=O)(O)OCC1OC(n2nc3c4c(ncnc42)NOCC3)CC1O (stereo not shown) [Compound 4.11, 1-(2′-deoxy-5′-O-triphosphate-ribofuranosyl)-pyrazolo[3,4-d]pyrimidine[2,3-c]dihydro-oxazepine]
- further extension after incorporation of two analogue residues ([3]; Template 1): did not occur
- native base in whose place the analogue is incorporated ([3]; Template 1): behaving as A
- primer extension product, analogue triphosphate as only nucleotide [3]: did not extend
- primer extension product in the presence of dGTP ([3]; Template 1, analogue triphosphate plus dGTP): +3 product
- effect of incorporation of two analogue residues ([3]; Template 2): resulted in termination
- native base in whose place the analogue is incorporated ([3]; Template 2): behaved as A rather than G

Compound: O=c1[nH]cnc2c1ncn2[C@H]1C[C@H](O)[C@@H](COP(=O)(O)OP(=O)(O)OP(=O)(O)O)O1 [dITP]
- band intensities of sequence ([1]; M13 mp18 template, 10 cycles, autoradiography): uneven band intensities especially in the G track
- length of sequence obtained ([1]; M13 mp18 template, 10 cycles): < 200 bases

Compound: Nc1nc2c(ncn2[C@H]2C[C@H](O)[C@@H](COP(=O)(O)OP(=O)(O)OP(=O)(O)O)O2)c(=O)[nH]1 [dGTP, reference compound]
- length of tail added to 15 mer primer [2]: ~50 bases

Compound: 9-(2′-Deoxy-5′-O-triphosphate-ribofuranosyl)-pyrrolo[4,3,2-de]pyrimido[4,5-c]dihydro-oxazepine [dSTP]
- incorporation of dSTP into DNA [4]: can incorporate dSTP as either dGTP or as dATP
- incorporation of dSTP into DNA (Taq polymerase): can incorporate dSTP as either dGTP or as dATP
- native base in whose place the analogue is incorporated ([3]; Template 1): efficiently incorporated in place of both G and A
- primer extension product, analogue triphosphate as only nucleotide [3]: +3 product
- native base in whose place the analogue is incorporated ([3]; Template 2): efficiently incorporated as a single G but that multiple additions as G are slow
- primer extension products with mixture of dTTPαS and analogue triphosphate ([3]; Template 2, no +1 product): +2, +3 and +5 products
- incorporation of dSTP into DNA [5]: can incorporate dSTP as either dGTP or as dATP
- length of tail added to 15 mer primer [2]: intermediate in size between those of dATP and dGTP
- length of sequence obtained ([1]; M13 mp18 template, 10 cycles): > 250 bases
- quality as polymerase substrate ([1]; conclusion from cycle sequencing, compared with dITP): very good polymerase substrate

Compound: 1-(2′-deoxy-5′-O-triphosphate-ribofuranosyl)-pyrazolo[3,4-d]pyrimidine[2,3-c]dihydro-oxazepine [Compound 4.11]
- length of tail added to 15 mer primer [2]: predominantly by a single base
